Source: ChEMBL document CHEMBL1201862, “PubChem BioAssay data set” (2004)
The source made the active and inactive calls.

Columns and labels:
[1] = target: Luciferin 4-monooxygenase (Photinus pyralis, UniProt P08659); test: Counter Screen for Luciferase-based Assay Positives. [Related pubchem assays: 620, 618, 411 ]
[2] = tested on: HT-1080; test: HT1080 cell viability loss – fluorescence readout (AID 620); format: functional, cell-based; settings: Homo sapiens
[3] = target: T1, Neuropeptide Y receptor type 2 (Homo sapiens, UniProt P49146); test: IC50 for human NPY-Y2 blockade – cell-based, counter-screen for NPY-Y1 antagonist project, dose response (AID 1278); format: functional
T1 sequence (P49146 whole entry): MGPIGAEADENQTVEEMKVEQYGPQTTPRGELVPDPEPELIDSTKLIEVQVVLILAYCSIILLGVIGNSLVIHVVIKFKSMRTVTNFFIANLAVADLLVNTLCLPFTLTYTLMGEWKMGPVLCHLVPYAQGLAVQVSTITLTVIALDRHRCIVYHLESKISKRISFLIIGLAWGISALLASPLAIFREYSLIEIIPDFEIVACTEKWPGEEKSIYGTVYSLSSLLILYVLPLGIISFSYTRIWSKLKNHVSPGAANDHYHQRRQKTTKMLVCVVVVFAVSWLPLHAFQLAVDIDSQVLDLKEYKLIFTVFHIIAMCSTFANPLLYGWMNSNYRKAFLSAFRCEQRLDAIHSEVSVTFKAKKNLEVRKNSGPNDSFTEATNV

[4] = target: T2, Neuropeptide Y receptor type 1 (Homo sapiens, UniProt P25929); test: IC50 of human NPY-Y1 blockers – cell-based, dose response (AID 1277); format: functional
T2 sequence (P25929 whole entry): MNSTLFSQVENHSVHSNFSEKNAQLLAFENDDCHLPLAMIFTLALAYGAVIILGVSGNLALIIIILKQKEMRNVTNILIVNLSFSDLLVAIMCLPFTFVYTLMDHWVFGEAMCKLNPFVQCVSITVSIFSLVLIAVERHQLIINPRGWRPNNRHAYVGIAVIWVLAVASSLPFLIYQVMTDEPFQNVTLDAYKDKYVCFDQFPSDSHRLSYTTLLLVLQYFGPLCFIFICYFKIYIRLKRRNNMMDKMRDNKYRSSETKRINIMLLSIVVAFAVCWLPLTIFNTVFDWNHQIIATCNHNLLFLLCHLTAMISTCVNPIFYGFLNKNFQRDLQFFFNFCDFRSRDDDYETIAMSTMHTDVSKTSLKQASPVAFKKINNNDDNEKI

[5] = target: T3, Cytochrome P450 1A2 (Homo sapiens, UniProt P05177);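 also: PubChem cytochrome P450 panel assay, CYP1A2 panel member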
T3 sequence (P05177 whole entry): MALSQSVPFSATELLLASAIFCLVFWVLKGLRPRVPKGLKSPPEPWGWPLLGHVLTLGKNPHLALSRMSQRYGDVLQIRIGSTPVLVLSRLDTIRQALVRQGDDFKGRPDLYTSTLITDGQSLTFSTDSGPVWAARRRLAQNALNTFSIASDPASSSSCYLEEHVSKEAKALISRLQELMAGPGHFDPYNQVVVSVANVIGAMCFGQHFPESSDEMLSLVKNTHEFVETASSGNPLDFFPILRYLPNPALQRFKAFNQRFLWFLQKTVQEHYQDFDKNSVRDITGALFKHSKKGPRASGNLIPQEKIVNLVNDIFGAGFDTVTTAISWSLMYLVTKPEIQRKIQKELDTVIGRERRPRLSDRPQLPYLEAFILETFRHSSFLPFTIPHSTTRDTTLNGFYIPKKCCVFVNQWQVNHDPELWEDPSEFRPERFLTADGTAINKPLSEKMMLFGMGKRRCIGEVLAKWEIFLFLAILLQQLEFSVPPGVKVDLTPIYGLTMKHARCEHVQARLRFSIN

[6] = HPDE-C7 pancreatic duct cell viability loss – fluorescence, HTS (AID 430); format: functional, cell-based; settings: Homo sapiens
[7] = viability loss of HPDE-C7K cells – cell-based, fluorescence, HTS, primary screen (AID 431); format: functional; settings: Homo sapiens
[8] = M. tuberculosis H37Rv growth inhibitors, H37Rv strain (AID 1626); format: functional
[9] = target: T4, Leucine aminopeptidase (Plasmodium falciparum 3D7, UniProt Q8IL11); test: P. falciparum M17LAP inhibitors, primary screen, biochemical, fluorogenic H-Leu-NHMec substrate, 1536-well (AID 1619); format: functional
T4 sequence (Q8IL11 whole entry): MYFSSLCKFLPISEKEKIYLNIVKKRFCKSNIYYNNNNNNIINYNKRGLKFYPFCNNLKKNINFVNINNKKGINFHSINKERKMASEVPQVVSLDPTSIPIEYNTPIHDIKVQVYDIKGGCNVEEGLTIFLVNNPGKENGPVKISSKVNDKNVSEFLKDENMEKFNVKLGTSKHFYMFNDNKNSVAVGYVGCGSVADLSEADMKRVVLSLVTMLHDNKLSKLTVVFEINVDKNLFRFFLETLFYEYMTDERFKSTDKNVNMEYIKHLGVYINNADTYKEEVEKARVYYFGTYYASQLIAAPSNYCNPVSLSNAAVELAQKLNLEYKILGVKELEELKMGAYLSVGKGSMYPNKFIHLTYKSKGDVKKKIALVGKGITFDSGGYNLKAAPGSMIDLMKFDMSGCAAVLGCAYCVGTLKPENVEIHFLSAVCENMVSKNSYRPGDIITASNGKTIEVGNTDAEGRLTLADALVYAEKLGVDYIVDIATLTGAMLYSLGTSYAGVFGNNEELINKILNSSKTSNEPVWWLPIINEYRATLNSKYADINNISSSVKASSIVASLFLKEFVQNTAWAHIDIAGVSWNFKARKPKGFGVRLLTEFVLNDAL

[10] = tested on: Streptococcus sp. 'group A'; test: Streptococcus pyogenes SK(-)GAS viability under kanamycin – luminescence, BacTiterGlo, confirmation, counter-screen for streptokinase expression inhibitor project, dose response (AID 1900); format: functional, organism-based
[11] = target: T5, Streptokinase A (Streptococcus pyogenes serotype M1, UniProt P10520); test: viability-normalized secreted streptokinase activity reduction – plasminogen activation absorbance, OD405, dose response (AID 1914); format: functional, Streptococcus pyogenes M1 GAS;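 also: secreted streptokinase activity via plasminogen activation per viability signal from cell pellet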
T5 sequence (P10520 whole entry): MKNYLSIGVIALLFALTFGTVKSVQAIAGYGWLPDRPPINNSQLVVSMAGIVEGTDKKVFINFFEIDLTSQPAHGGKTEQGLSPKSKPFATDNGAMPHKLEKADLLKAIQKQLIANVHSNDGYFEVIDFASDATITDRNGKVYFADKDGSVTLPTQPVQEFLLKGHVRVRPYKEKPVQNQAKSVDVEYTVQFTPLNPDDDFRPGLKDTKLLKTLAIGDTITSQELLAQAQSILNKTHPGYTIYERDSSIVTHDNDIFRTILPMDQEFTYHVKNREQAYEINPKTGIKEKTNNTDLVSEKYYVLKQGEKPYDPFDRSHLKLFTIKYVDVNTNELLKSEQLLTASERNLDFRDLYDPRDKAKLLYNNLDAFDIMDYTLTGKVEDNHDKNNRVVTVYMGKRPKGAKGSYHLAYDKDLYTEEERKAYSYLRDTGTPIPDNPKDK

[12] = tested on: Streptococcus; test: GAS UMAA2166 growth inhibition – luminescence, BacTiterGlo, counter-screen for streptokinase expression inhibitor project, dose response (AID 1915); format: functional, organism-based;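 also: potency for reduction of bacterial viability or growth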
[13] = target: T6, Mannose-6-phosphate isomerase (Homo sapiens, UniProt P34949); test: MPI enzyme activity inhibition – biochemical, fluorescence intensity, coupled assay, primary screen (AID 1209)
T6 sequence (P34949 whole entry): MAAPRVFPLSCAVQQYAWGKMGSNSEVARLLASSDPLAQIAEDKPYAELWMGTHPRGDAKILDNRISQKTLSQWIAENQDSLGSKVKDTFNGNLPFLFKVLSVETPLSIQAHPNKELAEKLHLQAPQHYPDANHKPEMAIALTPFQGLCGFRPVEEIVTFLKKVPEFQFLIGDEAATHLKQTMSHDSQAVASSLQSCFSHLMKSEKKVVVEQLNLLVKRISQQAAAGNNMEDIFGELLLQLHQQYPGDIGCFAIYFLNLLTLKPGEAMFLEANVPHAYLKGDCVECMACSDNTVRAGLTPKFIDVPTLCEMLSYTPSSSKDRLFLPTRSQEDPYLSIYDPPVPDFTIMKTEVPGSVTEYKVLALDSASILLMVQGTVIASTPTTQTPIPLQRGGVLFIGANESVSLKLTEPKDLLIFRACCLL

[14] = target: T6, Mannose-6-phosphate isomerase; test: MPI inhibition at elevated mannose 6-phosphate – biochemical, fluorescence intensity, high mannose 6-phosphate, primary screen (AID 1220)
[15] = target: T7, Dual specificity protein phosphatase 6 (Rattus norvegicus, UniProt Q64346); test: inhibition of rat DUSP6 enzyme activity – biochemical, in vitro, primary screen (AID 425)
T7 sequence (Q64346 whole entry): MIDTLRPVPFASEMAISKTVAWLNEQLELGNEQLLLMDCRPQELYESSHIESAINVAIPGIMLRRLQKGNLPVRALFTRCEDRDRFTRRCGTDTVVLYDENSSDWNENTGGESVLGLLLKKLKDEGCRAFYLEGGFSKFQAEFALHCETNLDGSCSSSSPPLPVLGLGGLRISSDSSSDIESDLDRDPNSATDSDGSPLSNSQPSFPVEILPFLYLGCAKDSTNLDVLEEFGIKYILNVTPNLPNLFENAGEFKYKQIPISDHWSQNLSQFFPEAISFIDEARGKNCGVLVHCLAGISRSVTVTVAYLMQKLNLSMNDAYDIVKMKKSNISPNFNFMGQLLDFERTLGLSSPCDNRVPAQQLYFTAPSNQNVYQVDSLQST

[16] = A549 cell cytotoxicity, dose response, cytotoxicity control, plate reader, cherry-pick, antagonist series (AID 743412); format: functional, cell-based
[17] = toxicity toward HepG2 liver cells – cell-based, plate reader, cherry-pick, antagonist series, cytotoxicity control, dose response (AID 743416); format: functional
[18] = blockers of bursicon-stimulated LGR2 cAMP reporter – cell-based, HEK293, CRE-luciferase reporter, cherry pick, set 2, dose response (AID 743343); format: functional;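 also: transfected cells were stimulated with diluted bursicon conditioned medium after compound addition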
[19] = blockade of melanocortin 4 receptor signaling – cell-based, plate reader, cherry pick, counter-screen for LGR2 antagonist project, dose response (AID 743444); format: functional;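 also: transfected HEK 293 cells stimulated with alpha-MSH peptide; potency of inhibitors of the alpha-MSH evoked signal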
[20] = viability loss in HEK293 cells – cell-based, plate reader, cherry-picked samples, cytotoxicity control, dose response (AID 743446); format: functional
[21] = NIH-3T3 fibroblast cytotoxicity, dose response, cytotoxicity control, cell-based, fluorescence, Alamar Blue, secondary assay (AID 2327); format: functional;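 also: NIH-3T3 mouse fibroblasts cultured with fluconazole at 8 µg/mL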
[22] = fluconazole-exposed Candida albicans growth modulators – fluorescence, retest, confirmation (AID 2467); format: functional, cell-based
[23] = Luminescence Cell-Based Dose Retest to Confirm Inhibitors of Cancer Stem Cells. [Related pubchem assays (depositor defined):AID2717, AID2721]; format: functional; settings: Homo sapiens
[24] = target: Cytochrome P450 2C19 (Homo sapiens, UniProt P33261); test: Cytochrome panel assay with activity outcomes. Panel member name: p450-cyp2c19 Compounds with AC50 equal or less than 10 uM are considered active; format: functional; settings: read-out: AC50
Chain of Cytochrome P450 2C19 (P33261 whole entry): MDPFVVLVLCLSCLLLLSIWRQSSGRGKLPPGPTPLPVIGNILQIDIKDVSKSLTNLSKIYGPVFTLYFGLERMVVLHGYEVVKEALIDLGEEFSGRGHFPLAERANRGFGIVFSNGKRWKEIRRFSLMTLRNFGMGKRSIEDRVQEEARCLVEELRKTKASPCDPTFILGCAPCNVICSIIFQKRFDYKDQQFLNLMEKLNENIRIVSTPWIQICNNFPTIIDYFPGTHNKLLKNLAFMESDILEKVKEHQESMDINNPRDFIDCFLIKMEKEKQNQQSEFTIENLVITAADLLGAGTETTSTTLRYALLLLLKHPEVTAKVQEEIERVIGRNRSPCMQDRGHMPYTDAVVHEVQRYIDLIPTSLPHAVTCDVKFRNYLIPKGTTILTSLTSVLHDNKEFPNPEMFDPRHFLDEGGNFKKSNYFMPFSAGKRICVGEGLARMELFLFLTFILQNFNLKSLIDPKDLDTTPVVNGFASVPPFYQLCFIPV

Chain of Luciferin 4-monooxygenase (P08659 whole entry): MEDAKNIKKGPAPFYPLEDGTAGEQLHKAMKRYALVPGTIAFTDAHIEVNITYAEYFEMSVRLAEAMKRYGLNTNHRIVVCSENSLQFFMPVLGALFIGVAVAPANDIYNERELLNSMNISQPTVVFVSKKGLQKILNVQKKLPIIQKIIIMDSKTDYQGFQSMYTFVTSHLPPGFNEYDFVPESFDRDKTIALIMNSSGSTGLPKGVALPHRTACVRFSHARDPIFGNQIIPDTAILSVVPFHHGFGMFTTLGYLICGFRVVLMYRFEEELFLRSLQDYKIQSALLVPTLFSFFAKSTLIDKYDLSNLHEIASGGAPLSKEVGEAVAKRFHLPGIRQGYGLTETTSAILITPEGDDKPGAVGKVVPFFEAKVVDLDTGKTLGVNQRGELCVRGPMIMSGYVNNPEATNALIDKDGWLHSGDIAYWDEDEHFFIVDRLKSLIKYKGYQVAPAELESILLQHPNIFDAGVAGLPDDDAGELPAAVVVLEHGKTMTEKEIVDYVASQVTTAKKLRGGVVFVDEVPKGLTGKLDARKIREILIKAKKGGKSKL

## COC(=O)c1ccc(-c2nc(-c3cccs3)no2)cc1
[1]
  EC50: 0.76 µM (active)
[2]
  EC50: > 50 µM (not active)

## COc1ccc([N+](=O)[O-])cc1N(CC(O)CN(CC(C)C)CC(C)C)S(=O)(=O)c1ccccc1 (centres undefined)
[3]
  IC50: > 35 µM (not active)
[4]
  IC50: > 35 µM (not active)
[5]
  AC50: 11.2 µM (inconclusive)

## O=C1CC(c2ccc3c(c2)OCO3)c2cc3c(cc2N1)OCCO3 (centres undefined)
[6]
  EC50: > 20 µM (not active)
[7]
  EC50: > 20 µM (not active)

## COc1ccc(N2CCN(C(c3cccc(OC)c3OC)c3nnnn3C3CCCC3)CC2)cc1 (centres undefined)
[3]
  IC50: > 35 µM (not active)
[4]
  IC50: > 35 µM (not active)

## COc1ccc(NC2(C#N)CCCCC2)cc1
[8]
  IC50: > 100 µM (active)

## Cc1sc(NC(=O)C2C3C=CC(C3)C2C(=O)O)c(C(N)=O)c1-c1ccc(C(C)C)cc1 (centres undefined)
[9]
  IC50: 4.99 µM (active)
[10]
  EC50: 32.1 µM (active)
[11]
  EC50: 32.2 µM (active)
[12]
  EC50: > 150 µM (not active)

## Cc1cc(=O)oc2ccc(OC(=O)CC(C)C)cc12
[8]
  IC50: > 100 µM (active)

## COc1ccc2c(c1)C(C)=CC(C)(C)N2C(=O)Nc1ccccc1
[13]
  IC50: > 50 µM (not active)
[14]
  IC50: > 50 µM (not active)

## O=C(CN(Cc1ccco1)C(=O)CNS(=O)(=O)c1ccc(F)cc1)NCCc1ccccc1
[15]
  IC50: > 100 µM (not active)

## O=S(=O)(CCSc1nc2ccccc2o1)c1nc2ccccc2s1
[6]
  EC50: 4.88 µM (active)
[7]
  EC50: 5.33 µM (active)
[16]
  AC50: 44.4 µM (active)
[17]
  AC50: 5.74 µM (active)
[18]
  AC50: 2.43 µM (active)
[19]
  AC50: 1.8 µM (active)
[20]
  AC50: 6.8 µM (active)

## N=C1/C(=C\c2ccc(SCc3ccccc3)o2)C(=O)N=C2SC=NN12
[21]
  EC50: > 150 µM (inactive)
[22]
  EC50: 5.72 µM (active)
[13]
  IC50: > 50 µM (not active)

## c1ccc(-c2cc3c(NCC4COc5ccccc5O4)ncnc3s2)cc1 (centres undefined)
[10]
  EC50: 3 µM (active)
[11]
  EC50: 3.29 µM (active)
[8]
  IC50: > 100 µM (active)
[12]
  EC50: 21.7 µM (active)
[23]
  AC50: 3.96 µM (active)

## COC(=O)c1ccc(NC(=O)C2CCCCC2C(=O)O)cc1 (centres undefined)
[9]
  IC50: 13.5 µM (active)
[24]
  AC50: 0.0398 µM (inconclusive)

## O=C(c1cc(-c2cccc(O)c2)on1)N1CCCCC1
[1]
  EC50: 0.64 µM (active)
[2]
  EC50: > 50 µM (not active)

## Cc1cc2cc(C)c(NCCNC(=O)c3cccc(F)c3)nc2cc1C
[3]
  IC50: 4.44 µM (active)
[4]
  IC50: 3.39 µM (active)
